The values below are quoted from earlier work in patent publication US6326378A, “Use of thiadiazolo[4,3-a]pyridine derivatives” (Roche Diagnostics GmbH, priority 1998, dated 2001).

For this data set the following is noted: cited from earlier work.

Turning to `Cn1c(=O)c2[nH]cnc2n(C)c1=O` [theophylline], the side effects entry (at slightly increased doses) was “nausea, giddiness, tachycardia and tremor”. The therapeutic breadth entry (employed for therapy) was “small therapeutic breadth”.
